Laboratory results: US10954287B2, “Ras binding peptides and methods of use” (Ra Pharmaceuticals, Inc., priority 2016, dated 2021)

System: GMPPNP-loaded H-Ras or GTP-loaded K-Ras
Assay: Fluorescence polarization competition assay with TAMRA-labeled probe R4007
Assay type: binding, human
Conditions: 120 nM Ras, 30 nM probe R4007, 60 minutes at room temperature; read-out: Probe displacement (nM IC50)
Description: R4000 was evaluated for competition with a TAMRA labeled probe (R4007) based on peptide R4000. The assay was performed in 384-well black, non-binding plates (Greiner Bio-One, Monroe, N.C.). GMPPNP-loaded H-Ras or GTP-loaded K-Ras, diluted in FP assay buffer (20 mM Tris-HCl, pH 7.5, 50 mM NaCl, 5 mM MgCl2, 1 mM EDTA, 0.002% Triton-X-100) for a final concentration of 120 nM was incubated with 30 nM R4007 for 20 minutes at room temperature. R4000 was serially diluted, added to the assay and incubated for 60 minutes at room temperature. Fluorescence polarization was detected with a SpectraMax Paradigm plate reader (Molecular Devices, Sunnyvale, Calif.) using the Rhodamine FP detection cartridge (535 nm/595 nm). Data was analyzed using GraphPad Prism and Ki determined using One Site Ki Curve fitting model.
Peptides were evaluated for competition with R4007, a probe consisting of TAMRA-labeled R4000, using a fluorescence polarization (FP) competition assay. The assay was performed in 384-well black, non-binding plates (Greiner Bio-One, Monroe, N.C.). GMPPNP-loaded H-Ras or GTP- loaded K-Ras, diluted in FP assay buffer (20 mM Tris-HCl, pH 7.5, 50 mM NaCl, 5 mM MgCl2, 1 mM EDTA, 0.002% Triton-X-100) for a final concentration of 120 nM was incubated with 30 nM probe for 20 minutes at room temperature. Peptides were serially diluted, added to the assay and incubated for 60 minutes at room temperature. Fluorescence was detected with a SpectraMax Paradigm plate reader (Molecular Devices, Sunnyvale, Calif.) using the Rhodamine FP detection cartridge (535 nm/595 nm). Data was analyzed and Ki determined using a One Site Ki Curve fitting model. Percent inhibition for each data point was calculated relative to the maximal binding in test compound-free control wells (showing no probe displacement) and Ras-free control wells (showing no probe binding) and the half-maximal inhibitory concentration (IC50), based on probe displacement, was determined.

IC50 | Compound
110 nM | CCC[C@H](NC(C)=O)C(=O)N[C@H]1CSCc2cccc(c2)CSC[C@@H](C(N)=O)NC(=O)CN(C)C(=O)[C@H](Cc2ccc(F)cc2)N(C)C(=O)[C@H](Cc2ccc(O)cc2)NC(=O)[C@H](Cc2c[nH]c3ncccc23)NC(=O)[C@H](c2ccccc2)NC(=O)[C@H](CCCCN)N(C)C(=O)[C@H](Cc2c[nH]cn2)NC(=O)[C@H](C)NC(=O)[C@H](C(C)(C)C)NC(=O)[C@H](Cc2ccc(O)cc2)NC1=O (relative stereo) [Compound R4125, ACE-NVA-CYS*-TYR-TBG-ALA-HIS-NMK-PHG-7AW-TYR-MFF-SAR-CYS*-NH2]
148 nM | CCC[C@H](NC(C)=O)C(=O)N[C@H]1CSCc2cccc(c2)CSC[C@@H](C(=O)NCC(=O)NCC(=O)NCC(=O)N[C@@H](CS)C(=O)N[C@H](C(=O)N[C@H](C(=O)N[C@@H](CCSC)C(N)=O)[C@@H](C)CC)C(C)C)NC(=O)CN(C)C(=O)[C@H](Cc2ccc(F)cc2)N(C)C(=O)[C@H](Cc2ccc(O)cc2)NC(=O)[C@H](Cc2c[nH]c3ncccc23)NC(=O)[C@H](c2ccccc2)NC(=O)[C@H](C)N(C)C(=O)[C@H](Cc2c[nH]cn2)NC(=O)[C@H](CCCCN)NC(=O)[C@H](C(C)(C)C)NC(=O)[C@H](Cc2ccc(O)cc2)NC1=O (relative stereo) [Compound R4127, ACE-NVA-CYS*-TYR-TBG-LYS-HIS-NMA-PHG-7AW-TYR-MFF-SAR-CYS*-GLY-GLY-GLY-CYS-VAL-ILE-MET-NH2]
227 nM | CCC[C@H](NC(C)=O)C(=O)N[C@H]1CSCc2cccc(c2)CSC[C@@H](C(=O)N[C@H](CO)C(=O)N[C@H](C)C(=O)N[C@@H](CCCCN)C(=O)N[C@@H](CSSC(C)(C)C)C(=O)N[C@H](C(=O)N[C@H](C(=O)N[C@@H](CCSC)C(=O)O)[C@@H](C)CC)C(C)C)NC(=O)CN(C)C(=O)[C@H](Cc2ccc(F)cc2)N(C)C(=O)[C@H](Cc2ccc(O)cc2)NC(=O)[C@H](Cc2c[nH]c3ncccc23)NC(=O)[C@H](c2ccccc2)NC(=O)[C@H](C)N(C)C(=O)[C@H](Cc2c[nH]cn2)NC(=O)[C@H](CCCCN)NC(=O)[C@H](C(C)(C)C)NC(=O)[C@H](Cc2ccc(O)cc2)N(C)C1=O (relative stereo) [Compound R4129, ACE-NVA-CYS*-NMY-TBG-LYS-HIS-NMA-PHG-7AW-TYR-MFF-SAR-CYS*-DSER-DALA-LYS-TDSPA-VAL-ILE-MET]

The next lines start with the compound.

Compound | IC50
C=CC(=O)NCCCC[C@@H]1NC(=O)[C@H](C)NC(=O)[C@H](C(C)(C)C)NC(=O)[C@H](Cc2ccc(O)cc2)NC(=O)[C@@H](NC(=O)[C@H](CCC)NC(C)=O)CSCc2cccc(c2)CSC[C@@H](C(N)=O)NC(=O)CN(C)C(=O)[C@H](Cc2ccc(F)cc2)N(C)C(=O)[C@H](Cc2ccc(O)cc2)NC(=O)[C@H](Cc2c[nH]c3ncccc23)NC(=O)[C@H](c2ccccc2)NC(=O)[C@H](C)N(C)C1=O (relative stereo) [Compound R4123, ACE-NVA-CYS*-TYR-TBG-ALA-KAC-NMA-PHG-7AW-TYR-MFF-SAR-CYS*-NH2] | 85 nM
C[C@H]1C(=O)N[C@@H](c2ccccc2)C(=O)N[C@@H](Cc2c[nH]c3ncccc23)C(=O)N[C@@H](Cc2ccc(O)cc2)C(=O)N(C)[C@@H](Cc2ccc(F)cc2)C(=O)N(C)CC(=O)NCCOCCOCCC(=O)N[C@@H](Cc2ccc(O)cc2)C(=O)N[C@@H](C(C)(C)C)C(=O)N[C@@H](CCCCN)C(=O)N[C@@H](Cc2c[nH]cn2)C(=O)N1C (relative stereo) [Compound R4124, PEG2PA*-TYR-TBG-LYS-HIS-NMA-PHG-7AW-TYR-MFF-SAR*] | 88.4 nM
CCC[C@H](NC(C)=O)C(=O)N[C@H]1CSCc2cccc(c2)CSC[C@@H](C(N)=O)NC(=O)CN(C)C(=O)[C@H](Cc2ccc(F)cc2)N(C)C(=O)[C@H](Cc2ccc(O)cc2)NC(=O)[C@H](Cc2c[nH]c3ncccc23)NC(=O)[C@H](c2ccccc2)NC(=O)[C@H](C)N(C)C(=O)[C@H](C)NC(=O)[C@H](CCCCN)NC(=O)[C@H](C(C)(C)C)NC(=O)[C@H](Cc2ccc(O)cc2)NC1=O (relative stereo) [Compound R4126, ACE-NVA-CYS*-TYR-TBG-LYS-ALA-NMA-PHG-7AW-TYR-MFF-SAR-CYS*-NH2] | 127 nM
